Laboratory results reported in ChEMBL document CHEMBL1828590 (J Med Chem, 2011).
pIC50: −log10 of the molar value. The source made the active and inactive calls. The calls are words filed in the database; no cut-off is given here.

Legend:
[1] = tested on: Mus musculus; assay: Toxicity in po dosed athymic nu/nu Harlan mouse with xenografted human HCT116 cells assessed as treatment-related mortality at 200 mg/kg,; assay type: organism-based, HCT-116; design: dose 200 mg/kg, route oral; conditions: in vivo
[2] = Cmax in Beagle dog at 10 mg/kg, po; assay type: ADME, organism-based, Canis lupus familiaris; design: dose 10 mg/kg, route oral; conditions: in vivo
[3] = AUC (0 to infinity) in Wistar rat at 2 mg/kg, iv; assay type: ADME, organism-based; design: time infinity, dose 2 mg/kg, route intravenous; conditions: plasma
[4] = Plasma protein binding in mouse at 1000 ng/mL; assay type: ADME, cell-free; conditions: read-out: PPB (converted)
[5] = tested on: Mus musculus; assay: Toxicity in nude BALB/c mouse xenografted with human MV4-11 cells assessed as mortality at 25 mg/kg, po QD for 21 days measured on day 21; assay type: organism-based; design: dose 25 mg/kg, route oral; conditions: in vivo, 504 h
[6] = Terminal half life in Wistar rat at 2 mg/kg, iv; assay type: ADME, organism-based; design: dose 2 mg/kg, route intravenous; conditions: in vivo, read-out: beta t1/2 (converted)
[7] = tested on: Mus musculus; assay: Toxicity in nude BALB/c mouse xenografted with human A2780 cells assessed as mortality at 100 mg/kg, po QD for 21 days measured on day 9; assay type: organism-based; design: dose 100 mg/kg, route oral; conditions: in vivo, 504 h
[8] = tested on: MV4-11; assay: Antitumor activity against human MV4-11 cells xenografted in nude BALB/c mouse assessed as tumor growth inhibition at 50 mg/kg, po qd for 21 days measured on day 21; assay type: functional; conditions: MV4-11, 504 h, read-out: TGI
[9] = Volume of distribution at steady state in Beagle dog at 2 mg/kg, iv; assay type: ADME, organism-based, Canis lupus familiaris; design: dose 2 mg/kg, route intravenous; conditions: in vivo, read-out: Vdss
[10] = tested on: Mus musculus; assay: Toxicity in nude BALB/c mouse xenografted with human MV4-11 cells assessed as maximum body weight loss at 25 mg/kg, po QD for 21 days measured on day 10; assay type: organism-based; design: dose 25 mg/kg, route oral; conditions: in vivo, 504 h
[11] = AUC (0 to infinity) in Wistar rat at 10 mg/kg, po; assay type: ADME, organism-based; design: time infinity, dose 10 mg/kg, route oral; conditions: plasma
[12] = Time required for attaining concentration above IC50 of HDAC1 in tumor of nude BALB/c mouse xenografted with HCT116 cells at 100 mg/kg, po administered as single dose; assay type: ADME, organism-based, Neoplasm, HCT-116; design: dose 100 mg/kg, route oral; conditions: in vivo
[13] = Apparent oral clearance in nude BALB/c mouse at 50 mg/kg, po; assay type: ADME, organism-based; design: dose 50 mg/kg, route oral; conditions: in vivo
[14] = Terminal half life in nude BALB/c mouse at 50 mg/kg, po; assay type: ADME, organism-based; design: dose 50 mg/kg, route oral; conditions: in vivo, read-out: beta t1/2 (converted)
[15] = tested on: MV4-11; assay: Antiproliferative activity against human MV4-11 cells; assay type: functional, cell-based
[16] = Apparent permeability from basolateral to apical side of human Caco2 cells; assay type: ADME, cell-based; conditions: Caco-2
[17] = tested on: Mus musculus; assay: Toxicity in nude BALB/c mouse xenografted with human HCT116 cells assessed as body weight loss at 200 mg/kg, po QD for 21 days measured on day 6; assay type: organism-based, HCT-116; design: dose 200 mg/kg, route oral; conditions: in vivo, 504 h
[18] = tested on: Mus musculus; assay: Toxicity in nude BALB/c mouse xenografted with human PC3 cells assessed as maximum body weight loss at 50 mg/kg, po QD for 21 days measured on day 17; assay type: organism-based, PC-3; design: dose 50 mg/kg, route oral; conditions: in vivo, 504 h
[19] = tested on: Mus musculus; assay: Toxicity in nude BALB/c mouse xenografted with human HCT116 cells assessed as mouse survival at 200 mg/kg, po QD for 21 days measured on day 22; assay type: organism-based, HCT-116; design: dose 200 mg/kg, route oral; conditions: in vivo, 504 h
[20] = AUC (0 to infinity) in nude BALB/c mouse at 10 mg/kg, iv; assay type: ADME, organism-based; design: time infinity, dose 10 mg/kg, route intravenous; conditions: plasma
[21] = tested on: Mus musculus; assay: Toxicity in nude BALB/c mouse xenografted with human Ramos cells assessed as mortality at 50 mg/kg, po QD for 21 days measured on day 15; assay type: organism-based; design: dose 50 mg/kg, route oral; conditions: in vivo, 504 h
[22] = Tmax in Wistar rat at 10 mg/kg, po; assay type: ADME, organism-based; design: dose 10 mg/kg, route oral; conditions: in vivo
[23] = tested on: HCT-116; assay: Antitumor activity against human HCT116 cells xenografted in nude BALB/c mouse assessed as tumor growth inhibition at 100 mg/kg, po qd for 21 days measured on day 15 measured on day 15; assay type: functional; conditions: read-out: TGI
[24] = tested on: Mus musculus; assay: Toxicity in nude BALB/c mouse xenografted with human HCT116 cells assessed as body weight loss at 100 mg/kg, po QD for 21 days measured on day 19; assay type: organism-based, HCT-116; design: dose 100 mg/kg, route oral; conditions: in vivo, 504 h
[25] = tested on: Mus musculus; assay: Toxicity in nude BALB/c mouse xenografted with human HCT116 cells assessed as body weight loss at 50 mg/kg, po QD for 21 days measured on day 17; assay type: organism-based, HCT-116; design: dose 50 mg/kg, route oral; conditions: in vivo, 504 h
[26] = tested on: Mus musculus; assay: Toxicity in nude BALB/c mouse xenografted with human PC3 cells assessed as mortality at 50 mg/kg, po QD for 21 days measured on day 22; assay type: organism-based, PC-3; design: dose 50 mg/kg, route oral; conditions: in vivo, 504 h
[27] = Cmax in nude BALB/c mouse at 50 mg/kg, po; assay type: ADME, organism-based; design: dose 50 mg/kg, route oral; conditions: in vivo
[28] = Cmax in Wistar rat at 10 mg/kg, po; assay type: ADME, organism-based; design: dose 10 mg/kg, route oral; conditions: in vivo
[29] = Apparent oral clearance in nude BALB/c mouse at 10 mg/kg, iv; assay type: ADME, organism-based; design: dose 10 mg/kg; conditions: in vivo
[30] = tested on: Mus musculus; assay: Toxicity in nude BALB/c mouse xenografted with human MV4-11 cells assessed as maximum body weight loss at 25 mg/kg, po QD for 21 days measured on day 12; assay type: organism-based; design: dose 25 mg/kg, route oral; conditions: in vivo, 504 h
[31] = Plasma protein binding in rat at 1000 ng/mL; assay type: ADME, cell-free; conditions: read-out: PPB (converted)
[32] = Terminal half life in Beagle dog at 2 mg/kg, iv; assay type: ADME, organism-based, Canis lupus familiaris; design: dose 2 mg/kg, route intravenous; conditions: in vivo, read-out: beta t1/2 (converted)
[33] = Apparent oral clearance in Beagle dog at 2 mg/kg, iv; assay type: ADME, organism-based, Canis lupus familiaris; design: dose 2 mg/kg; conditions: in vivo
[34] = Half life in rat liver microsomes; assay type: ADME, Microsome
[35] = target: Matrix metalloproteinase-9 (Homo sapiens) (UniProt P14780); assay: Inhibition of MMP9 at 10 uM
Sequence of Matrix metalloproteinase-9 (Homo sapiens) (P14780 whole entry): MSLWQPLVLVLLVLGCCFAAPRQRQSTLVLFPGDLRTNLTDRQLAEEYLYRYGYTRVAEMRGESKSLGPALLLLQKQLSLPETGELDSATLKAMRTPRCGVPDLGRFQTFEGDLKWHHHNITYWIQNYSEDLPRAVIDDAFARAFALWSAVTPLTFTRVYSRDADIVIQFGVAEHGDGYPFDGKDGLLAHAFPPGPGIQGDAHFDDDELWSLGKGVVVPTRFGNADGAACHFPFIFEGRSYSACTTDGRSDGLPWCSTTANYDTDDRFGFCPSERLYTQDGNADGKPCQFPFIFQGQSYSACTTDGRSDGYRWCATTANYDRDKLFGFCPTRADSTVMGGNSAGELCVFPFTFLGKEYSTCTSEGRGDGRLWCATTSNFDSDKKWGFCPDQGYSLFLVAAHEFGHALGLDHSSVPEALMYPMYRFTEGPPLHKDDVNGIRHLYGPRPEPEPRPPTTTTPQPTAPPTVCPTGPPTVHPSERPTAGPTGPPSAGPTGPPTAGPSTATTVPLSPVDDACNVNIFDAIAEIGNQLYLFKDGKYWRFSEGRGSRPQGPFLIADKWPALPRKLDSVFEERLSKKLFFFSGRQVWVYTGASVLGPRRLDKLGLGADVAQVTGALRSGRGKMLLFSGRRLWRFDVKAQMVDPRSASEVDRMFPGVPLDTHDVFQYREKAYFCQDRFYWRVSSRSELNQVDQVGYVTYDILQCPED

[36] = 1-Octanol-sodium phosphate buffer distribution coefficient, log D of the compound at pH 7.4; assay type: physicochemical; conditions: 1-octanol/sodium phosphate buffer, read-out: logD
[37] = Solubility of the compound in water at pH 2.2; assay type: physicochemical
[38] = tested on: Ramos; assay: Antitumor activity against human Ramos cells xenografted in nude BALB/c mouse assessed as tumor growth inhibition at 50 mg/kg, po qd for 21 days measured on day 15; assay type: functional; conditions: read-out: TGI
[39] = tested on: HCT-116; assay: Antitumor activity against human HCT116 cells xenografted in nude BALB/c mouse assessed as tumor growth inhibition at 100 mg/kg, po qd for 21 days; assay type: functional; conditions: HCT-116, 504 h, read-out: TGI
[40] = Solubility of the compound in 1% methylcellulose/0.1% Tween 80; assay type: physicochemical
[41] = Plasma protein binding in dog at 1000 ng/mL; assay type: ADME, cell-free, Canis lupus familiaris; conditions: read-out: PPB (converted)
[42] = tested on: MV4-11; assay: Antitumor activity against human MV4-11 cells xenografted in nude BALB/c mouse assessed as tumor growth inhibition at 25 mg/kg, po qd for 21 days measured on day 21; assay type: functional; conditions: MV4-11, 504 h, read-out: TGI
[43] = Volume of distribution at steady state in nude BALB/c mouse at 10 mg/kg, iv; assay type: ADME, organism-based; design: dose 10 mg/kg, route intravenous; conditions: in vivo, read-out: Vdss
[44] = Time required for attaining concentration above IC50 of HCT116 in tumor of nude BALB/c mouse xenografted with HCT116 cells at 50 mg/kg, po administered as single dose; assay type: ADME, organism-based, Neoplasm, HCT-116; design: dose 50 mg/kg, route oral; conditions: in vivo
[45] = Terminal half life in Beagle dog at 10 mg/kg, po; assay type: ADME, organism-based, Canis lupus familiaris; design: dose 10 mg/kg, route oral; conditions: in vivo, read-out: beta t1/2 (converted)
[46] = tested on: PC-3; assay: Antiproliferative activity against human PC3 cells; assay type: functional, cell-based
[47] = tested on: A2780; assay: Antitumor activity against human A2780 cells xenografted in nude BALB/c mouse assessed as tumor growth inhibition at 100 mg/kg, po qd for 21 days measured on day 9; assay type: functional; conditions: read-out: TGI
[48] = Volume of distribution at steady state in Wistar rat at 2 mg/kg, iv; assay type: ADME, organism-based; design: dose 2 mg/kg, route intravenous; conditions: in vivo, read-out: Vdss
[49] = Apparent permeability from apical to basolateral side of human Caco2 cells; assay type: ADME, cell-based; conditions: Caco-2

## CCCCCCc1nc2cc(/C=C/C(=O)NO)ccc2n1CCN(C)C
[1]
  Activity: Toxic

## CCCCc1nc2cc(/C=C/C(=O)NO)ccc2n1CCN(CC)CC.Cl.Cl
[2]
  Cmax: 3.56 µM
[3]
  AUC(0-inf): 1.15 µM·h
[4]
  fraction unbound at 1000 ng/mL: 0.061
[5]
  Activity: Non-toxic
[6]
  half-life: 0.89 h
[7]
  Activity: Non-toxic
[8]
  inhibition in vivo at 50 mg/kg: 114%
[9]
  Vd: 4.24 L/kg
[10]
  Activity: 10%
[11]
  AUC(0-inf): 0.181 µM·h
[12]
  Time: 16 h
[13]
  CL/F: 453 mL/min/kg
[14]
  half-life: 2.44 h
[15]
  pIC50: 7.00
[16]
  Papp B→A: 19.4 ×10⁻⁶ cm/s
[17]
  Activity: 25.5%
[18]
  Activity: 7.7%
[19]
  Activity: Toxic
[20]
  AUC(0-inf): 2.52 µM·h
[21]
  Activity: Non-toxic
[22]
  Tmax: 0.24 h
[23]
  inhibition in vivo at 100 mg/kg: 97%
[24]
  Activity: 14.6%
[25]
  Activity: 6.4%
[26]
  Activity: Non-toxic
[27]
  Cmax: 6.1 µM
[28]
  Cmax: 0.139 µM
[29]
  CL/F: 153 mL/min/kg
[30]
  Activity: 12%
[31]
  fraction unbound at 1000 ng/mL: 0.07
[32]
  half-life: 3.9 h
[33]
  CL/F: 24.2 mL/min/kg
[34]
  half-life: 7.8 min
[35]
  inhibition: inactive
[36]
  logD: 2.07
[37]
  solubility: > 100 mg/mL
[38]
  inhibition in vivo at 50 mg/kg: 75%
[39]
  inhibition in vivo at 100 mg/kg: 90%
[40]
  solubility: > 25 mg/mL
[41]
  fraction unbound at 1000 ng/mL: 0.165
[42]
  inhibition in vivo at 25 mg/kg: 61%
[43]
  Vd: 3.46 L/kg
[44]
  Time: 5.1 h
[45]
  half-life: 4.12 h
[46]
  pIC50: 6.47
[47]
  inhibition in vivo at 100 mg/kg: 63%
[48]
  Vd: 1.66 L/kg
[49]
  Papp A→B: 7.04 ×10⁻⁶ cm/s
